For one assay, the target named is T1, CFTR-mediated short-circuit current in F508del/MF-HBE cells (Homo sapiens, UniProt P13569, DEL508-508).
T1 construct: human bronchial epithelial (HBE) cells derived from CF subjects; endogenous in cells; host or cells: primary human bronchial epithelial cells from CF subjects (F508del/MF-HBE)
T1 sequence (P13569 with tags, fused parts or gaps DEL508-508): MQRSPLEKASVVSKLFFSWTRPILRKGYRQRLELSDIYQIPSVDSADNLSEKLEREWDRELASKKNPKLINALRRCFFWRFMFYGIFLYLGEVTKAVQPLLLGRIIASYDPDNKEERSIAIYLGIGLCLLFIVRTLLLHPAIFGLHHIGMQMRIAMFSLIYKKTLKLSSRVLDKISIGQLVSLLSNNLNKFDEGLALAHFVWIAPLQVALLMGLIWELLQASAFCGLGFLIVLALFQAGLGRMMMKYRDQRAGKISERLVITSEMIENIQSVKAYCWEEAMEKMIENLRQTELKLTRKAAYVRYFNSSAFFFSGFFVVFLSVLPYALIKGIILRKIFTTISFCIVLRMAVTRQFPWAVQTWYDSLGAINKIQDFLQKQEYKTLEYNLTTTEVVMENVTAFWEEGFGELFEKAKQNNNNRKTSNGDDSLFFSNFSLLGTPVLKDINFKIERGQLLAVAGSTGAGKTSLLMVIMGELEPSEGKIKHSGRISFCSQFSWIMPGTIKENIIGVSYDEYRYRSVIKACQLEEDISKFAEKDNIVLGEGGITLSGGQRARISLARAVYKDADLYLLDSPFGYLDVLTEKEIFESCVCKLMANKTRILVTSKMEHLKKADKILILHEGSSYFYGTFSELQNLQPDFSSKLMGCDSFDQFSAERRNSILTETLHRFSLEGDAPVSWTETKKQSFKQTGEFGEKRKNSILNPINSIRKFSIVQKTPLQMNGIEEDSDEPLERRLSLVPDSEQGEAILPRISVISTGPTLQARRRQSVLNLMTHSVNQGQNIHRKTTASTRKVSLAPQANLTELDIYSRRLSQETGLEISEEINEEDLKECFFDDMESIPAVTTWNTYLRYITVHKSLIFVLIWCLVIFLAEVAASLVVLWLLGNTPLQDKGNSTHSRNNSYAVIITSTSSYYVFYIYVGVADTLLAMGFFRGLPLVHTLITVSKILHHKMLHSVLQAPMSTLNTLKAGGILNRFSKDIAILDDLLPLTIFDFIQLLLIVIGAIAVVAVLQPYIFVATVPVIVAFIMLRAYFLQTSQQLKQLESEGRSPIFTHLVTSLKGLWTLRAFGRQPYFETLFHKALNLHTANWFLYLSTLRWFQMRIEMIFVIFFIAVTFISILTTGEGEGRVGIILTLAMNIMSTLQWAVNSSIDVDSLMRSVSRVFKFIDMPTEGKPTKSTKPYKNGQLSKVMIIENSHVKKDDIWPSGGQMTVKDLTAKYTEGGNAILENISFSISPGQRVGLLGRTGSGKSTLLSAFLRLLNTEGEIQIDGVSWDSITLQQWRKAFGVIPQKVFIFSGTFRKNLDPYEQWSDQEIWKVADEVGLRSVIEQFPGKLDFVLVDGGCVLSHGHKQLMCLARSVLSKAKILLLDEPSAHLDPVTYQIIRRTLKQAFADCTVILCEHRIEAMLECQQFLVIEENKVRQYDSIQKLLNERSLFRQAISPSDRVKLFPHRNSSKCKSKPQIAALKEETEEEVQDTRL
Kind of assay: HBE assay: Ussing chamber assay of CFTR-mediated short-circuit currents. The assay is classed as cell-based. Particulars: F508del/MF-HBE cells, 18-24 hours incubation. As for the experimental part: (§1) 1. Ussing Chamber Assay of CFTR-Mediated Short-Circuit Currents
(§2) Ussing chamber experiments were performed using human bronchial epithelial (HBE) cells derived from CF subjects heterozygous for F508del and a minimal function CFTR mutation (F508del/MF-HBE) and cultured as previously described (Neuberger T, Burton B, Clark H, Van Goor F Methods Mol Biol 2011:741:39-54). After four days the apical media was removed, and the cells were grown at an air liquid interface for >14 days prior to use.
(§3) To isolate the CFTR-mediated short-circuit (ISC) current, F508del/MF-HBE grown on Costar® Snapwell™ cell culture inserts were mounted in an Ussing chamber and the transepithelial ISC was measured under voltage-clamp recording conditions (Vhold=0 mV) at 37° C. The basolateral solution contained (in mM) 145 NaCl, 0.83 K2HPO4, 3.3 KH2PO4, 1.2 MgCl2, 1.2 CaCl2), 10 Glucose, 10 HEPES (pH adjusted to 7.4 with NaOH) and the apical solution contained (in mM) 145 NaGluconate, 1.2 MgCl2, 1.2 CaCl2, 10 glucose, 10 HEPES (pH adjusted to 7.4 with NaOH) and 30 μM amiloride to block the epithelial sodium channel. Forskolin (20 μM) was added to the apical surface to activate CFTR, followed by apical addition of a CFTR inhibitor cocktail consisting of BPO, GlyH-101, and CFTR inhibitor 172 (each at 20 μM final assay concentration) to specifically isolate CFTR currents. The CFTR-mediated ISC (μA/cm^2) for each condition was determined from the peak forskolin response to the steady-state current following inhibition.
(§4) 2. Identification of Corrector Compounds
(§5) The activity of the CFTR corrector compounds on the CFTR-mediated ISC was determined in Ussing chamber studies as described above. The F508del/MF-HBE cell cultures were either incubated with the corrector compounds at a range of concentrations in combination with 1 μM Ivacaftor or were incubated with the corrector compounds at a single fixed concentration of 10 μM in combination with 1 μM Ivacaftor for 18-24 hours at 37° C. and in the presence of 20% human serum. The concentration of corrector compounds with 1 μM Ivacaftor during the 18-24 hours incubations was kept constant throughout the Ussing chamber measurement of the CFTR-mediated ISC to ensure compounds were present throughout the entire experiment.
as §3, with “CaCl2,” for “CaCl2),”
With `Cc1cccc(C)c1-c1cc2nc(n1)NS(=O)(=O)c1cccc(c1)C(=O)N1[C@@H](c3ncc(OC(C)C)cn3)CC[C@@H](C(C)C)[C@H]1CO2` (single isomer, unassigned) [Compound 388, 13-(2,6-Dimethylphenyl)-4-(5-isopropoxypyrimidin-2-yl)-7-isopropyl-17,17-dioxo-10-oxa-17λ^6-thia-3,14,16,23-tetrazatetracyclo[16.3.1.111,15.03,8]tricosa-1(21),11,13,15(23),18(22),19-hexaen-2-one], the EC50 – broadly, the concentration that produces a half-maximal response – is below 1 µM and the “HBE Max activity (%)” value is “+++ (+++ is >60%)”.

In the case of `Cc1cccc(C)c1-c1cc2nc(n1)NS(=O)(=O)c1cccc(c1)C(=O)N1[C@@H](c3ncc(OC(C)C)cn3)CC[C@@H](C(C)C)[C@H]1CO2` (single isomer, unassigned) [Compound 389, 13-(2,6-dimethylphenyl)-4-(5-isopropoxypyrimidin-2-yl)-7-isopropyl-17,17-dioxo-10-oxa-17λ^6-thia-3,14,16,23-tetrazatetracyclo[16.3.1.111,15.03,8]tricosa-1(21),11,13,15(23),18(22),19-hexaen-2-one], the EC50 lay in the range of 1 to 3 µM and the “HBE Max activity (%)” value was “+ (+ is <30+)”.

The assay is the same for the next values; noted with them: at 10 μM.
In the case of `Cc1cccc(C)c1-c1cc2nc(n1)NS(=O)(=O)c1cccc(c1)C(=O)N1[C@@H](c3cccc(N(C)C4CC5(CC5)C4)n3)CC[C@@H](C(C)C)[C@H]1CO2` (single isomer, unassigned) [Compound 390, 13-(2,6-dimethylphenyl)-7-isopropyl-4-[6-[methyl(spiro[2.3]hexan-5-yl)amino]-2-pyridyl]-17,17-dioxo-10-oxa-17λ^6-thia-3,14,16,23-tetrazatetracyclo[16.3.1.111,15.03,8]tricosa-1(21),11,13,15(23),18(22),19-hexaen-2-one], the “HBE Activity at 10 μM (%)” value was “+++ (+++ is >60%)”.

A further assay concerns the target T1, CFTR-mediated short-circuit current in F508del/MF-HBE cells. As to the kind of experiment: HBE2 assay: Ussing chamber assay of CFTR-mediated short-circuit currents. The assay is classed as cell-based.
Details: not given
As for the experimental part: as §1, §2
as §3, with “CaCl2,” for “CaCl2),”
as §4
as §5, with “44 nM (6R,12R)-17-amino-12-methyl-6,15-bis(trifluoromethyl)-13,19-dioxa-3,4,18-triazatricyclo[12.3.1.12,5]nonadeca-1(18),2,4,14,16-pentaen-6-ol” for “1 μM Ivacaftor”, “1 and 3” for “10”, “[…]” for “20%”
For the compound `Cc1cccc(C)c1-c1cc2nc(n1)NS(=O)(=O)c1cccc(c1)C(=O)N1[C@@H](c3ncc(OC(C)C)cn3)CCC[C@@H](O2)[C@H]1CC(C)C` (single isomer, unassigned) [Compound 407, 12-(2,6-dimethylphenyl)-21-isobutyl-20-(5-isopropoxypyrimidin-2-yl)-8,8-dioxo-15-oxa-8λ^6-thia-1,9,11,22-tetrazatetracyclo[14.4.1.13,7.110,14]tricosa-3,5,7(23),10(22),11,13-hexaen-2-one], the “HBE2 Activity at 3 μM (%)” value is recorded as “+ (+ is <30+)”.

Turning to `Cc1cccc(C)c1-c1cc2nc(n1)NS(=O)(=O)c1cccc(c1)C(=O)N1[C@@H](c3ncc(OC(C)C)cn3)CCC[C@@H](O2)[C@H]1CC(C)C` (single isomer, unassigned) [Compound 408, 12-(2,6-Dimethylphenyl)-21-isobutyl-20-(5-isopropoxypyrimidin-2-yl)-8,8-dioxo-15-oxa-8λ^6-thia-1,9,11,22-tetrazatetracyclo[14.4.1.13,7.110,14]tricosa-3,5,7(23),10(22),11,13-hexaen-2-one], the “HBE2 Activity at 3 μM (%)” value is “+++ (+++ is >60%)”.

Consider `Cc1cccc(C)c1-c1cc2nc(n1)NS(=O)(=O)c1cccc(c1)C(=O)N1[C@@H](c3ncc(OC(C)C)cn3)CCC[C@@H](O2)[C@H]1CC(C)C` (single isomer, unassigned) [Compound 409, 12-(2,6-dimethylphenyl)-21-isobutyl-20-(5-isopropoxypyrimidin-2-yl)-8,8-dioxo-15-oxa-8λ^6-thia-1,9,11,22-tetrazatetracyclo[14.4.1.13,7.110,14]tricosa-3,5,7(23),10(22),11,13-hexaen-2-one], for which the “HBE2 Activity at 3 μM (%)” value was “+ (+ is <30+)”.

Take `Cc1cccc(C)c1-c1cc2nc(n1)NS(=O)(=O)c1cccc(c1)C(=O)N1[C@@H](c3cncc(N(C)C4CCC4)n3)CCC(O2)[C@H]1CC(C)C` (single isomer, unassigned) [Compound 410]: the activation at 3 µM is above 60%.

In the case of `Cc1cccc(C)c1-c1cc2nc(n1)NS(=O)(=O)c1cccc(c1)C(=O)N1[C@@H](c3cncc(N(C)C4CCC4)n3)CC[C@H](O2)[C@H]1CC(C)C` (single isomer, unassigned) [Compound 411], the activation at 3 µM is 30 to 60%.

For `Cc1cccc(C)c1-c1cc2nc(n1)NS(=O)(=O)c1cccc(c1)C(=O)N1[C@H](CCC[C@@H]1C(=O)NCc1ccccc1)CO2` [Compound 415], the activation at 3 µM was in the range of 30 to 60%.

In the case of `Cc1cccc(C)c1-c1cc2nc(n1)NS(=O)(=O)c1cccc(c1)C(=O)N1C[C@@H](CCCC[C@@H]1c1ncc(OCc3ccccc3)cn1)O2` [Compound 416], the activation at 3 µM lay in the range of 30 to 60%.

On to `Cc1cccc(C)c1-c1cc2nc(n1)NS(=O)(=O)c1cccc(c1)C(=O)N1C[C@@H](CCCC[C@@H]1c1ncc(OCc3ccccc3)cn1)O2` [Compound 417], for which the “HBE2 Activity at 3 μM (%)” value is recorded as “+ (+ is <30+)”.

As to `Cc1cccc(C)c1-c1cc2nc(n1)NS(=O)(=O)c1cccc(c1)C(=O)N1[C@@H](c3ncc(OC(C)C)cn3)CC[C@@H](O2)[C@H]1CC(C)C` [Compound 418], the activation at 3 µM was below 30%.

For the compound `Cc1cccc(C)c1-c1cc2nc(n1)NS(=O)(=O)c1cccc(c1)C(=O)N1[C@@H](CCCC[C@@H]1c1ncc(OCc3ccccc3)cn1)CO2` [Compound 419], the activation at 3 µM lay in the range of 30 to 60%.

`Cc1cccc(C)c1-c1cc2nc(n1)NS(=O)(=O)c1cccc(c1)C(=O)N1[C@@H](CCCC[C@@H]1c1ncc(OCc3ccccc3)cn1)CO2` [Compound 420]: the “HBE2 Activity at 3 μM (%)” value is “+ (+ is <30+)”.

Regarding `Cc1cccc(C)c1-c1cc2nc(n1)NS(=O)(=O)c1cccc(c1)C(=O)N1[C@@H](c3ncc(OC(C)C)cn3)CCC[C@@H](O2)[C@H]1CC(C)C` [Compound 421], the “HBE2 Activity at 3 μM (%)” value is on record as “+++ (+++ is >60%)”.

Consider `Cc1cccc(C)c1-c1cc2nc(n1)NS(=O)(=O)c1cccc(c1)C(=O)N1[C@@H](c3ncc(OC(C)C)cn3)CCC[C@@H](O2)[C@H]1CC(C)C` [Compound 422], for which the “HBE2 Activity at 3 μM (%)” value was “+ (+ is <30+)”.

In the case of `Cc1cccc(C)c1-c1cc2nc(n1)NS(=O)(=O)c1cccc(c1)C(=O)N1[C@@H](c3ncc(OC(C)C)cn3)CCC[C@H]1[C@H](CC(C)C)O2` [Compound 423], the activation at 3 µM was 30 to 60%.

`Cc1cccc(C)c1-c1cc2nc(n1)NS(=O)(=O)c1cccc(c1)C(=O)N1[C@@H](c3ncc(OC(C)C)cn3)CCC[C@H]1[C@@H](CC(C)C)O2` [Compound 424]: the activation at 3 µM was 30 to 60%.

As to `Cc1cccc(C)c1-c1cc2nc(n1)NS(=O)(=O)c1cccc(c1)C(=O)N1[C@@H](c3cccc(N(C)C4CC5(CC5)C4)n3)CC[C@H]1[C@@H](CC(C)C)O2` [Compound 425], the activation at 3 µM fell in the range of 30 to 60%.

Consider `Cc1cccc(C)c1-c1cc2nc(n1)NS(=O)(=O)c1cccc(c1)C(=O)N1[C@@H](c3ncc(OC(C)C)cn3)CC[C@H](O2)[C@H]1CC(C)C` [Compound 426], for which the activation at 3 µM was 30 to 60%.

The values above are taken from patent publication US20240018161A1, “MODULATORS OF CYSTIC FIBROSIS TRANSMEMBRANE CONDUCTANCE REGULATOR” (VERTEX PHARMACEUTICALS INCORPORATED, priority 2020, published 2024).
